# B1: PTH: parathyroid hormone (PTH) preparation, a peptide preparation injected subcutaneously (peptide, UniProt P01270 32-115, looked up)
# Parathyroid hormone: SVSEIQLMHNLGKHLNSMERVEWLRKKLQDVHNFVALGAPLAPRDAGSQRPRKKEDNVLVESHEKSLGEADKADVNVLTKAKSQ
# modifications: Parathyroid hormone
# notes: parathyroid hormone (PTH) preparation, a peptide preparation injected subcutaneously
# How the values were obtained:
# [1] = tested on: PTH concentration in blood; format: in vivo; details: for death or abnormality of the rat administered with the compounds: 0.1-100 mg/kg intravenous or oral; for PTH concentration in blood after 30 minutes / dose dependence of PTH concentration increase / PTH concentration in blood 5 minutes after the intravenous administration: rat, 0.1-100 mg/kg; for PTH concentration in blood 5 minutes after the intravenous administration: Rat Intact PTH ELISA, versus normal value
# Description: Compounds of Exp. 3-49, Exp. 3-57, Exp. 3-93, Exp. 3-95, Exp. 3-102, Exp. 3-106, Exp. 8-5, Exp. 10-1 and Exp. 10-25 were chosen as a test compound. Each of them was either dissolved or suspended in physiological saline or distilled water containing 1-20% DMSO, 5% CremophorEL, 10-40% PEG300, etc. and administered intravenously (tail vein or femoral vein) or orally administered to a 7 week to 10 week old male SD-IGS rat (Nippon Charles-River) with dosage of 0.1-100 mg/kg. After that, blood sample was taken from subclavian vein over the time and serum was separated. Concentration of PTH in blood was measured using Rat Intact PTH ELISA Kit (manufactured by Immutopics) to evaluate an activity of increasing PTH concentration in blood. […] Therefore, the safety of these compounds was confirmed again.
# [2] = target: T1, human calcium-sensing receptor (CaSR) (Homo sapiens, UniProt P41180); assay: intracellular Ca assay, CaSR antagonist activity in HEK293/hCaSR cells; format: cell-based; details: Fura2-AM, inhibition of response to calcium chloride ligand solution, read-out: IC50 values according to the intracellular Ca assay (CaSR antagonist activity)
# T1 construct: expressed in transfected cells
# T1 sequence (P41180 20-1078): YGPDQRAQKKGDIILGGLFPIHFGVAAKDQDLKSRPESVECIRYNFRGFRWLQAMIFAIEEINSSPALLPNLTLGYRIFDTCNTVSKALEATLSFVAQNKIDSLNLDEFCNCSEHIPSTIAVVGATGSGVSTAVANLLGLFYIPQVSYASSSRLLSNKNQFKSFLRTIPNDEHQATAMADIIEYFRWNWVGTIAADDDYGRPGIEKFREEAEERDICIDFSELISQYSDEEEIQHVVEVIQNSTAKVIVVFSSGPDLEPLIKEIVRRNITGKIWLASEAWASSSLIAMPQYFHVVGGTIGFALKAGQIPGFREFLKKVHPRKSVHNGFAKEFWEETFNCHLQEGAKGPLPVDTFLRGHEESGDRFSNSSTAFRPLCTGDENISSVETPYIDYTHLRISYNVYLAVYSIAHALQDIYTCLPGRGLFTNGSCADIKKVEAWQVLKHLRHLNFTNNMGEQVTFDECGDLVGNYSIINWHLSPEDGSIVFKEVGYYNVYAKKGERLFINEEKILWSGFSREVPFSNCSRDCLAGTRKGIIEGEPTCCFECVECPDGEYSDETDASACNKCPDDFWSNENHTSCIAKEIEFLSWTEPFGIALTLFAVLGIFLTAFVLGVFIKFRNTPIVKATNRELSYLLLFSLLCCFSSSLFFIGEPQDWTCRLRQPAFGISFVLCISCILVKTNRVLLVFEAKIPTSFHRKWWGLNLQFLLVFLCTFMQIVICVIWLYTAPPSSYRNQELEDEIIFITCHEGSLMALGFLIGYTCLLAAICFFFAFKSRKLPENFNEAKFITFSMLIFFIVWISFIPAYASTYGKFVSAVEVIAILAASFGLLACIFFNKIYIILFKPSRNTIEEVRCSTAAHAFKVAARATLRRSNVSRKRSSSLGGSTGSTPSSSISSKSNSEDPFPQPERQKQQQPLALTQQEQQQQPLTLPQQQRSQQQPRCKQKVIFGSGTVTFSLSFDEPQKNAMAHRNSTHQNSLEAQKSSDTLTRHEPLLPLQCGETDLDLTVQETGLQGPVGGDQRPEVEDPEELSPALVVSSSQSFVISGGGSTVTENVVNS
# Procedure, shortened: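 HEK293/hCaSR cells were loaded with Fura2-AM and pre-incubated with compound for 160 s at 37° C in HEPES buffer (pH 7.4, 0.8 mM CaCl2), then challenged with calcium ligand solution. Read-out was the peak 340/380 nm fluorescence ratio; inhibition is relative to no-compound (0%) and no-calcium-ligand (100%) controls.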
# [3] = tested on: PTH concentration in blood; details: single oral administration, rat; cited from earlier work
# [4] = oral everyday for eight weeks, rat with removed ovary; cited from earlier work
# [5] = 20 μg subcutaneously everyday for 19 months in average; cited from earlier work
# [6] = PTH 20 μg subcutaneous everyday; ALN 10 mg oral everyday; cited from earlier work
Molecule,death or abnormality of the rat administered with the compounds [1],PTH concentration in blood after 30 minutes [1],dose dependence of PTH concentration increase [1],PTH concentration in blood 5 minutes after the intravenous administration [1],IC50 [2],further results
"CN(C[C@H](O)CNC(C)(C)Cc1ccc(Cl)c(F)c1)S(=O)(=O)c1cc(-c2ccc(CCC(=O)O)cc2)cc(C(F)(F)F)c1 [Exp. 3-95, (R)-3-(3′-(N-(3-(1-(4-chloro-3-fluorophenyl)-2-methylpropan-2-ylamino)-2-hydroxypropyl)-N-methylsulfamoyl)-5′-(trifluoromethyl)biphenyl-4-yl)propionic acid]",no death or abnormality was found,returned to a normal value,dependent on the administration amount of the compound,increased at least twice the normal value,–,–
"CN(C[C@H](O)CNC(C)(C)CC1Cc2ccccc2C1)S(=O)(=O)c1cccc(-c2ccc(CCC(=O)O)cc2)c1 [Exp. 3-57, (R)-3-(3′ (N-(3-(1-(2,3-dihydro-1H-inden-2-yl)-2-methylpropan-2-ylamino)-2-hydroxypropyl)-N-methylsulfamoyl)biphenyl-4-yl)propionic acid]",no death or abnormality was found,returned to a normal value,dependent on the administration amount of the compound,increased at least twice the normal value,300 to 1000 nM,–
"CCc1cc(-c2ccc(CCC(=O)O)cc2)ccc1S(=O)(=O)N(C)C[C@H](O)CNC(C)(C)CC1Cc2ccccc2C1 [Exp. 3-102, (R)-3-(4′-(N-(3-(1-(2,3-dihydro-1H-inden-2-yl)-2-methylpropan-2-ylamino)-2-hydroxypropyl)-N-methylsulfamoyl)-3′-ethylbiphenyl-4-yl)propionic acid]",no death or abnormality was found,returned to a normal value,dependent on the administration amount of the compound,increased at least twice the normal value,–,–
"CN(C[C@H](O)CNC(C)(C)CC1Cc2ccccc2C1)S(=O)(=O)c1ccc(-c2ccc(CCC(=O)O)cc2)c(Cl)c1 [Exp. 3-106, (R)-3-(2′-chloro-4′-(N-(3-(1-(2,3-dihydro-1H-inden-2-yl)-2-methylpropan-2-ylamino)-2-hydroxypropyl)-N-methylsulfamoyl)biphenyl-4-yl)propionic acid]",no death or abnormality was found,returned to a normal value,dependent on the administration amount of the compound,increased at least twice the normal value,≤ 300 nM,–
"CN(C[C@H](O)CNC(C)(C)CC1Cc2ccccc2C1)S(=O)(=O)c1cccc(-c2cccc(C(=O)O)c2)c1 [Exp. 3-49, (R)-3′-(N-(3-(1-(2,3-dihydro-1H-inden-2-yl)-2-methylpropan-2-ylamino)-2-hydroxypropyl)-N-methylsulfamoyl)biphenyl-3-carboxylic acid]",no death or abnormality was found,returned to a normal value,dependent on the administration amount of the compound,increased at least twice the normal value,≤ 300 nM,–
"CN(C[C@H](O)CNC(C)(C)CC1Cc2ccccc2C1)S(=O)(=O)c1cc(CCCC(=O)O)cc(C(F)(F)F)c1 [Exp. 10-25, (R)-4-(3-(N-(3-(1-(2,3-dihydro-1H-inden-2-yl)-2-methylpropan-2-ylamino)-2-hydroxypropyl)-N-methylsulfamoyl)-5-(trifluoromethyl)phenyl)butanoic acid]",no death or abnormality was found,returned to a normal value,dependent on the administration amount of the compound,increased at least twice the normal value,–,–
"CN(C[C@H](O)CNC(C)(C)CC1Cc2ccccc2C1)S(=O)(=O)c1cc(-c2ccc(CCC(=O)O)cc2)cc(C(F)(F)F)c1 [Exp. 3-93, (R)-3-(3′-(N-(3-(1-(2,3-dihydro-1H-inden-2-yl)-2-methylpropan-2-ylamino)-2-hydroxypropyl)-N-methylsulfamoyl)-5′-(trifluoromethyl)biphenyl-4-yl)propionic acid]",no death or abnormality was found,returned to a normal value,dependent on the administration amount of the compound,increased at least twice the normal value,≤ 300 nM,–
"CN(C[C@H](O)CNC(C)(C)CCCc1ccccc1)S(=O)(=O)c1cc(CCC(=O)O)cc(C(F)(F)F)c1 [Exp. 8-5, (R)-3-(3-(N-(2-hydroxy-3-(2-methyl-5-phenylpentan-2-ylamino)propyl)-N-methylsulfamoyl)-5-(trifluoromethyl)phenyl)propionic acid]",no death or abnormality was found,returned to a normal value,dependent on the administration amount of the compound,increased at least twice the normal value,≤ 300 nM,–
"CN(C[C@H](O)CNC(C)(C)CC1Cc2ccccc2C1)S(=O)(=O)c1cc(CCC(=O)O)cc(C(F)(F)F)c1 [Exp. 10-1, (R)-3-(3-(N-(3-(1-(2,3-dihydro-1H-inden-2-yl)-2-methylpropan-2-ylamino)-2-hydroxypropyl)-N-methylsulfamoyl)-5-(trifluoromethyl)phenyl)propionic acid]",no death or abnormality was found,returned to a normal value,dependent on the administration amount of the compound,increased at least twice the normal value,–,–
CC(C)(Cc1ccc2ccccc2c1)NC[C@@H](O)COc1cccc(Cl)c1C#N [NPS2143],–,–,–,–,–,PTH concentration in blood [3]: continuously increased; bone formation evaluated by bone morphometry [4]: increased; bone mineral density [4]: remained almost the same
B1,–,–,–,–,–,bone mineral density increase in lumbar spine [5]: 9.7%; bone mineral density increase in neck of femur [5]: 2.8%; inhibition of frequency of occurrence of new vertebral body fracture [5]: 65%; inhibition of frequency of occurrence of non-vertebral body fracture [5]: 53%; increase of bone mineral density of lumbar spine 18 months after the administration [6]: 10.3%

# — patent publication US8039514B2, “Sulfonamide compounds and use thereof” (Asahi Kasei Pharma Corporation, priority 2008, dated 2011)
